# Reference: patent US5932575A, “Cardiac diseases improving agents” (Kureha Chemical Industry Co., Ltd., priority 1997, dated 1999)
# Several values for one entry are separate records, joined by “and”; a condition that tells them apart may be missing. Equal values may be shown once.
# Experiments:
# rats with renal diseases [1] = conditions: J. Pharmacol. Exp. Ther., 267: 657-663, 1993; cited from earlier work
# [2] = system: angiotensin converting enzyme (ACE); conditions: cited from earlier work
# [3] = system: SHR rats, 3/4 NPX cardiac hypertrophy model; test: Inhibitory action of myocardial disturbance, Test 2 (3/4 NPX cardiac hypertrophy model); format: in vivo
# Description: Similarly, 3/4 NPX (cardiac hypertrophy model caused by 3/4 partial nephrectomy) was carried out at four weeks point in a control group and test group of SHR rats each having two and three animals. […] After 11 weeks, kidneys and heart were excised and their weight was determined.
# [4] = system: SHR rats, 3/4NPX cardiac hypertrophy model; test: Inhibitory action of myocardial disturbance, Test 1 (3/4NPX cardiac hypertrophy model); format: in vivo
# Description: SHR rats were divided into control group and test group each having three animals and both groups were treated with 3/4NPX, an experimental cardiac hypertrophy model prepared by 3/4 partial nephrectomy, after eight weeks. […] After the oral administration,kidneys and heart were excised and their weight was determined.
# ICR mice = test: Acute toxicity (oral, single dose); format: in vivo; conditions: 500 mg/kg oral once, 0.5% methylcellulose, after six days
# Description: Female 5-week-old ICR mice were divided to groups each having five animals and acclimated for a week. Compound Nos. 1-3, 7, 8, 11 and 13 each was dissolved or dispersed in 0.5% methylcelulose aqueous solution, respectively, and orally administered once at a dose of 500 mg/kg, then the number of dead animals was counted after six days.
# rats with renal diseases [5] = test: Hypotensive action in rats with experimental renal disease (tail cuff); format: in vivo, rats (female Sprague-Dawley)
# Description: The compounds of the present invention and a comparative compound, Dup 753, were orally administered by gavage to rats with renal diseases and hypotensive action was determined. Rats with experimental renal disease were prepared with conventional method by ligating branch of renal artery. That is, female Sprague-Dawley rats were anesthetized, left renal hilus was exposed and three of four second branches of renal artery were ligated remaining one branch. One week later, further right renal hilus including artery, vein and ureter was ligated to reduce renal function up to about 1/8 to those of normal animals. Rats were divided to make eight animals in one group, and 20 mg/kg of one test compound and water as a control were administered to each group. After two days, systolic blood pressure was determined with a blood pressure determination apparatus using tail cuff method (UR5000, Ueda Manufacturing Co., Ltd.).
# type 2 (AT2) receptor = target: T1, type 2 (AT2) receptor (Bos taurus, UniProt G5E6F7); test: Affinity to angiotensin II type 2 receptor (binding assay); design: species or system bovine; conditions: 37° C., one hour
# T1 construct: Receptor: Derived from bovine cerebellum; from tissue; host or cells: bovine cerebellum
# T1 sequence (G5E6F7 1-362): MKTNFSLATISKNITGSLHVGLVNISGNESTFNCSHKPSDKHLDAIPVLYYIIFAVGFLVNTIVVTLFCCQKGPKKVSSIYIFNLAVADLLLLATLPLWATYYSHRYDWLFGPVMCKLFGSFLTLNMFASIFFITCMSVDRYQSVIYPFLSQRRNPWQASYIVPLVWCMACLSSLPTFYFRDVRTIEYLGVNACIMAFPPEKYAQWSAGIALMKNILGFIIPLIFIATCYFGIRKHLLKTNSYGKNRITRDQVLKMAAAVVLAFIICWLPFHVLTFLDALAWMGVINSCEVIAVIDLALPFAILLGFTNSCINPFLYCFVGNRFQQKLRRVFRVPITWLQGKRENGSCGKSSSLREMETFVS
# Description: Practically, determination of total binding of each compound was carried out as follows. A mixture of 0.025 ml of a predetermined concentration of test compound prepared by dissolving in DMSO, dilution with a buffer attached to the drug discovery system to 2-fold solution, 0.025 ml of a tracer and 0.2 ml of a receptor to make total volume of 0.25 ml was incubated at room temperature for three hours for type 1 angiotensin II (AT1) receptor or at 37° C. for one hour for type 2 (AT2) receptor. The reaction mixture was filtered under suction with CF/C filter paper for AT1 and CF/B filter paper for AT2. The used filter paper having the combination of the tracer and the receptor was determined with a γ-well counter (ARC-500, Aloka). Non-specific binding was determined with a similar manner by adding a large excess amount of displacer. The specific binding of test compound at a predetermined concentration was obtained by subtracting non-specific binding from respective total binding. In AT1, and AT2, a predetermined concentrations of test compound and a control compound were used to give the inhibitory rate, IC50 value of 50% inhibition, or binding inhibitory % at 100 μM, for binding of a radioactive ligand (tracer) and the receptor.
# Receptor: Derived from bovine cerebellum
# Tracer: ^125 ITyr^4angiotensin II
# Control compound: Angiotensin II (human)
# (Displacer): Angiotensin II (human)
# angiotensin II receptor = conditions: cited from earlier work
# [6] = J. Clin. Pharmacol., 30:155-158, 1990
# [7] = test group average, 20 mg/kg in drinking water, after 9 weeks
# [8] = test group average, 20 mg/kg in drinking water, after 11 weeks
# [9] = test group individual animals 1-3 in order, 20 mg/kg, after 9 weeks, 20 mg/kg
# [10] = test group individual animals 1-3 in order, 20 mg/kg, after 11 weeks, 20 mg/kg
# [11] = test group average, 20 mg/kg in drinking water four weeks, after 16 weeks
# [12] = test group individual animals 1-3 in order, 20 mg/kg, after 16 weeks, 20 mg/kg
smiles,measurement,setting,value
"CCCN(Cc1ccc(-c2ccccc2-c2nnn[nH]2)cc1)c1ncccc1C(=O)O [A-81988, 2-[N-propyl-N-[[2'-(1H-tetrazol-5-yl)biphenyl-4-yl]methyl]amino]-pyridine-3-carboxylic acid]",hypotension (in words),rats with renal diseases [1],accompanied with hypotension
same,proteinuria (in words),rats with renal diseases [1],improvement in proteinuria
C[C@H](CS)C(=O)N1CCC[C@H]1C(=O)O [Captopril],blood pressure (in words),[2]; [6],lower blood pressure
same,adverse reactions (in words),[2],dry cough or adverse reaction of acute renal failure
"CCCCC(=O)N(Cc1ccc(C(=O)OCCN(C)C)cc1)c1cc(C(=O)N2CCOCC2)ccc1N(C)C [Compound No. 1, 4-dimethylamino-3-N-[[[4-(2'-dimethylaminoethoxycarbonyl)phenyl]-methyl]valeramido]benzoic acid morpholide]",heart weight (in words),"[3]; Test 2, 20 mg/kg",declined heart weight
same,myocardial disturbance (in words),"[3]; Test 2, 20 mg/kg",inhibition of myocardial disturbance
same,urinary protein (in words),"[3]; Test 2, 20 mg/kg",significant decrease of urinary protein
same,"BP: blood pressure, average",[3]; [7],214 mmHg
same,"BUN: blood urea nitrogen, average",[3]; [7],44 mg/dL
same,"BW: body weight, average",[3]; [7],258 g
same,"CCr: creatinine clearance, average",[3]; [7],0.64 mL/min
same,"Cr: blood creatinine, average",[3]; [7],0.7 mg/dL
same,"U-Pro.: urinary protein, average",[3]; [7],43.3 mg/day
same,"BP: blood pressure, average",[3]; [8],237 mmHg
same,"BUN: blood urea nitrogen, average",[3]; [8],56 mg/dL
same,"BW: body weight, average",[3]; [8],286 g
same,"CCr: creatinine clearance, average",[3]; [8],0.67 mL/min
same,"Cr: blood creatinine, average",[3]; [8],0.8 mg/dL
same,"HW: heart weight, average",[3]; [8],1.078 g
same,"KW: kidney weight, average",[3]; [8],1.350 g
same,"RW: relative weight (heart), average",[3]; [8],0.378%
same,"RW: relative weight (kidney), average",[3]; [8],0.473%
same,"U-Pro.: urinary protein, average",[3]; [8],65.4 mg/day
same,"BP: blood pressure, individual animal",[3]; [9],205 mmHg and 219 mmHg and 214 mmHg
same,"BUN: blood urea nitrogen, individual animal",[3]; [9],41 mg/dL and 45 mg/dL and 47 mg/dL
same,"BW: body weight, individual animal",[3]; [9],263 g and 254 g and 256 g
same,"CCr: creatinine clearance, individual animal",[3]; [9],0.83 mL/min and 0.51 mL/min and 0.58 mL/min
same,"Cr: blood creatinine, individual animal",[3]; [9],0.6 mg/dL and 0.8 mg/dL
same,"U-Pro.: urinary protein, individual animal",[3]; [9],38.7 mg/day and 41.5 mg/day and 49.8 mg/day
same,"BP: blood pressure, individual animal",[3]; [10],217 mmHg and 259 mmHg and 234 mmHg
same,"BUN: blood urea nitrogen, individual animal",[3]; [10],44 mg/dL and 50 mg/dL and 58 mg/dL
same,"BW: body weight, individual animal",[3]; [10],299 g and 271 g and 287 g
same,"CCr: creatinine clearance, individual animal",[3]; [10],0.79 mL/min and 0.55 mL/min and 0.67 mL/min
same,"Cr: blood creatinine, individual animal",[3]; [10],0.7 mg/dL and 0.8 mg/dL and 1.0 mg/dL
same,"HW: heart weight, individual animal",[3]; [10],1.113 g and 1.018 g and 1.106 g
same,"KW: kidney weight, individual animal",[3]; [10],1.364 g and 1.319 g and 1.368 g
same,"RW: relative weight (heart), individual animal",[3]; [10],0.372% and 0.376% and 0.385%
same,"RW: relative weight (kidney), individual animal",[3]; [10],0.456% and 0.487% and 0.477%
same,"U-Pro.: urinary protein, individual animal",[3]; [10],46.9 mg/day and 40.5 mg/day and 108.7 mg/day
same,cardiac disturbance (in words),"[4]; Test 1, 20 mg/kg",inhibited cardiac disturbance
same,heart weight (in words),"[4]; Test 1, 20 mg/kg",decrease of heart weight due to cardiac hypertrophy
same,hypotension or kidney disturbance (in words),"[4]; Test 1, 20 mg/kg",without inducing hypotension or kidney disturbance
same,kidney weight (in words),"[4]; Test 1, 20 mg/kg",decreased inhibition of kidney weight increase
same,"BP: blood pressure, average",[4]; [11],232 mmHg
same,"BUN: blood urea nitrogen, average",[4]; [11],58 mg/dL
same,"BW: body weight, average",[4]; [11],385 g
same,"CCr: creatinine clearance, average",[4]; [11],0.76 mL/min
same,"Cr: blood creatinine, average",[4]; [11],1.0 mg/dL
same,"HW: heart weight, average",[4]; [11],1.493 g
same,"KW: kidney weight, average",[4]; [11],1.451 g
same,"RW: relative weight (heart), average",[4]; [11],0.388%
same,"RW: relative weight (kidney), average",[4]; [11],0.376%
same,"U-Pro.: urinary protein, average",[4]; [11],114.6 mg/day
same,"BP: blood pressure, individual animal",[4]; [12],247 mmHg and 221 mmHg and 229 mmHg
same,"BUN: blood urea nitrogen, individual animal",[4]; [12],55 mg/dL and 50 mg/dL and 70 mg/dL
same,"BW: body weight, individual animal",[4]; [12],415 g and 346 g and 394 g
same,"CCr: creatinine clearance, individual animal",[4]; [12],0.88 mL/min and 0.74 mL/min and 0.66 mL/min
same,"Cr: blood creatinine, individual animal",[4]; [12],1.0 mg/dL and 0.9 mg/dL and 1.2 mg/dL
same,"HW: heart weight, individual animal",[4]; [12],1.546 g and 1.326 g and 1.606 g
same,"KW: kidney weight, individual animal",[4]; [12],1.515 g and 1.269 g and 1.568 g
same,"RW: relative weight (heart), individual animal",[4]; [12],0.373% and 0.383% and 0.408%
same,"RW: relative weight (kidney), individual animal",[4]; [12],0.365% and 0.366% and 0.398%
same,"U-Pro.: urinary protein, individual animal",[4]; [12],119.8 mg/day and 50.5 mg/day and 174.6 mg/day
"CCCCC(=O)N(Cc1ccc(C(=O)O)cc1)c1cc(C(=O)N2CCOCC2)ccc1N(C)C [Compound No. 7, 3-N-[[(4-Carboxyphenyl)methy)valeramido]-4-dimethylaminobenzoic acid morpholide]",number of dead animals,ICR mice,No dead animals was found
"CCCCC(=O)N(Cc1ccc(C(=O)O)cc1)c1cc(C(=O)N2CCOCC2)ccc1C [Compound No. 8, 4-Methyl-3-N-[[4-(carboxyphenyl)methyl]valeramido]benzoic acid morpholide]",number of dead animals,ICR mice,No dead animals was found
CCCCC(=O)N(Cc1ccc(-c2ccccc2-c2nn[nH]n2)cc1)c1cc(C(=O)N2CCOCC2)ccc1N(C)C [Compound No. 11],number of dead animals,ICR mice,No dead animals was found
"CCCCC(=O)N(Cc1ccc(-c2nn[nH]n2)cc1)c1cc(C(=O)N2CCOCC2)ccc1N(C)C [Compound No. 13, 4-Dimethylamino-3-N-[[4-(1H-tetrazol-5-yl)phenylmethyl]valeramido]benzoic acid morpholide]",number of dead animals,ICR mice,No dead animals was found
"CCCCc1nc(Cl)c(CO)n1Cc1ccc(-c2ccccc2-c2nnn[nH]2)cc1 [DuP753, 2-butyl-4-chloro-5-(hydroxymethyl)-1-[[2'-(1H-tetrazol-5-yl)biphenyl-4-yl]methyl]imidazole]",Blood pressure (average systolic),"rats with renal diseases [5]; 20 mg/kg oral gavage, after two days, control (water) 210",130 mmHg
same,effect on blood pressure (in words),"rats with renal diseases [5]; 20 mg/kg oral, compared with control group",marked hypotension
same,inhibition at 100 µM,type 2 (AT2) receptor,0%
same,antagonistic action to angiotensin II receptor (in words),angiotensin II receptor,potent antagonistic action to angiotensin II receptor
CCOC(=O)[C@H](CCc1ccccc1)N[C@@H](C)C(=O)N1CCC[C@H]1C(=O)O [Enalapril],blood pressure (in words),[2]; [6],lower blood pressure
same,renal dysfunction (in words),[2]; [6],improve the progress of renal dysfunction
same,adverse reactions (in words),[2],dry cough or adverse reaction of acute renal failure
